Source: the OligoGym collection
Several values for one entry are separate records, joined by “and”; a condition that tells them apart may be missing. Identical values can stand only once. After the bases stand the sugars from the 5' end (letter, count) and the backbone: PS all phosphorothioate, else s phosphorothioate and o phosphodiester by linkage. Methylation of C is not given here. e = 2'-O-(2-methoxyethyl) (MOE); k = constrained ethyl (cEt); d = 2'-deoxy (DNA)

Target: IRF5
Details: ASO

## AAGGGCACAGCGCAGG (sugars kkddddddddddkeke, PS)
KARPAS-229, 4 µM
  target mRNA inhibition: 0%

## ATGAGTCATGGGCTGA (sugars k3 d9 k3 e1, PS)
KARPAS-229, 4 µM
  target mRNA inhibition: 20%

## GGTCTGGCCCTTTTGG (sugars kdddddddddkekeke, PS)
KARPAS-229, 4 µM
  target mRNA inhibition: 0%

## GTTATCTCCGTCCTGG (sugars kkdddddddddkekek, PS)
KARPAS-229, 4 µM
  target mRNA inhibition: 0%

## GAGTCTCAAACCAGGG (sugars kdddddddddkekeke, PS)
KARPAS-229, 4 µM
  target mRNA inhibition: 6%

## GGTTCTTGGACTCTCA (sugars kkdddddddddkekek, PS)
KARPAS-229, 4 µM
  target mRNA inhibition: 0%

## CATCTCCACATCAGTC (sugars kdddddddddkekeke, PS)
KARPAS-229, 4 µM
  target mRNA inhibition: 32%

## AAACCATTCTATGCCT (sugars k3 d10 k3, PS)
KARPAS-229, 4 µM
  target mRNA inhibition: 0%

## AAAGGGTGAGTAGGAC (sugars k3 d10 k3, PS)
KARPAS-229, 4 µM
  target mRNA inhibition: 24%

## TTTGCTCTAAACCATT (sugars k3 d10 k3, PS)
KARPAS-229, 4 µM
  target mRNA inhibition: 2%

## TGAATTTTGTGACTGT (sugars k3 d10 k3, PS)
KARPAS-229, 0.44444 µM
  target mRNA inhibition: 32%
KARPAS-229, 1.33333 µM
  target mRNA inhibition: 59%
KARPAS-229, 4 µM
  target mRNA inhibition: 64% and 70%
KARPAS-229, 12 µM
  target mRNA inhibition: 81%

## GAGTCATGGGCTGAGG (sugars kddddddddddkekek, PS)
KARPAS-229, 4 µM
  target mRNA inhibition: 0%

## CCAATGCAACATCCAT (sugars k3 d10 k3, PS)
KARPAS-229, 4 µM
  target mRNA inhibition: 0%

## AGGTTCTTGGACTCTC (sugars k2 d9 e3 k2, PS)
KARPAS-229, 4 µM
  target mRNA inhibition: 0%

## TCACCACTGTGTACCC (sugars kkdddddddddkekek, PS)
KARPAS-229, 4 µM
  target mRNA inhibition: 0%

## GTTATCTCCGTCCTGG (sugars kkddddddddkekekk, PS)
KARPAS-229, 4 µM
  target mRNA inhibition: 0%

## AGATGGTGTTATCTCC (sugars kkdddddddddkekek, PS)
KARPAS-229, 4 µM
  target mRNA inhibition: 0%

## CCATTCTATGCCTTTT (sugars kkddddddddkekekk, PS)
KARPAS-229, 4 µM
  target mRNA inhibition: 3%

## GTGAGTCTCAAACCAG (sugars k3 d10 k3, PS)
KARPAS-229, 4 µM
  target mRNA inhibition: 9%

## GGGCACAGCGCAGGTT (sugars kdddddddddkekeke, PS)
KARPAS-229, 4 µM
  target mRNA inhibition: 33%

## ATCACCACTGTGTACC (sugars k3 d9 k3 e1, PS)
KARPAS-229, 4 µM
  target mRNA inhibition: 19%

## GTGTATTTCCCTGTCT (sugars k2 d8 e4 k2, PS)
KARPAS-229, 4 µM
  target mRNA inhibition: 0%

## GGTCTTGACCTCCCGC (sugars kddddddddddkekek, PS)
KARPAS-229, 4 µM
  target mRNA inhibition: 37%

## ACTGACACAGGCGGAT (sugars kkddddddddkekekk, PS)
KARPAS-229, 4 µM
  target mRNA inhibition: 0%

## GGGAGTCAGACCTACC (sugars k3 d10 k3, PS)
KARPAS-229, 4 µM
  target mRNA inhibition: 0%

## CTTGGTCTTGACCTCC (sugars kkkddddddddkdkdk, PS)
KARPAS-229, 4 µM
  target mRNA inhibition: 19%

## GTCTGGCCCTTTTGGA (sugars k2 d8 e4 k2, PS)
KARPAS-229, 4 µM
  target mRNA inhibition: 0%

## GCATTCCATATACACA (sugars kkddddddddkekekk, PS)
KARPAS-229, 4 µM
  target mRNA inhibition: 0%

## TCTGCAGGGAGTCAGA (sugars k3 d10 k3, PS)
KARPAS-229, 4 µM
  target mRNA inhibition: 0%

## GTCTGGCCCTTTTGGA (sugars kkdddddddddkekek, PS)
KARPAS-229, 4 µM
  target mRNA inhibition: 0%

## TTGTCTAGTGTCATGG (sugars kdddddddddkekeke, PS)
KARPAS-229, 4 µM
  target mRNA inhibition: 8%

## GTGAGTCTCAAACCAG (sugars k3 d9 k3 e1, PS)
KARPAS-229, 0.44444 µM
  target mRNA inhibition: 23%
KARPAS-229, 1.33333 µM
  target mRNA inhibition: 39%
KARPAS-229, 4 µM
  target mRNA inhibition: 44% and 50%
KARPAS-229, 12 µM
  target mRNA inhibition: 59%

## CACATCTCCACATCAG (sugars kkdddddddddkekek, PS)
KARPAS-229, 4 µM
  target mRNA inhibition: 22%

## GTGAGACGAGCAAAGG (sugars k3 d10 k3, PS)
KARPAS-229, 0.44444 µM
  target mRNA inhibition: 60%
KARPAS-229, 1.33333 µM
  target mRNA inhibition: 49%
KARPAS-229, 4 µM
  target mRNA inhibition: 49% and 74%
KARPAS-229, 12 µM
  target mRNA inhibition: 77%

## ATTTGCCTTCTGCAGG (sugars k3 d10 k3, PS)
KARPAS-229, 4 µM
  target mRNA inhibition: 0%

## CCATTCTATGCCTTTT (sugars kkkddddddddkekek, PS)
KARPAS-229, 4 µM
  target mRNA inhibition: 44%

## AGGAGTGAGACGAGCA (sugars k3 d10 k3, PS)
KARPAS-229, 0.44444 µM
  target mRNA inhibition: 12%
KARPAS-229, 1.33333 µM
  target mRNA inhibition: 41%
KARPAS-229, 4 µM
  target mRNA inhibition: 56% and 58%
KARPAS-229, 12 µM
  target mRNA inhibition: 70%

## GTTCTTGGACTCTCAA (sugars k2 d8 e4 k2, PS)
KARPAS-229, 4 µM
  target mRNA inhibition: 8%

## GGTCTTTGAGGTCTGG (sugars k3 d9 k3 e1, PS)
KARPAS-229, 4 µM
  target mRNA inhibition: 33%

## TCACCACTGTGTACCC (sugars kkkddddddddkekek, PS)
KARPAS-229, 4 µM
  target mRNA inhibition: 0%

## CACTTGATTCCAATTT (sugars k3 d10 k3, PS)
KARPAS-229, 4 µM
  target mRNA inhibition: 36%

## CAATTTTGCATTCCAT (sugars kkddddddddkekekk, PS)
KARPAS-229, 4 µM
  target mRNA inhibition: 32%

## GGTTCTTGGACTCTCA (sugars k2 d9 e3 k2, PS)
KARPAS-229, 0.44444 µM
  target mRNA inhibition: 46%
KARPAS-229, 1.33333 µM
  target mRNA inhibition: 64%
KARPAS-229, 4 µM
  target mRNA inhibition: 48% and 73%
KARPAS-229, 12 µM
  target mRNA inhibition: 84%

## GATGGTGTTATCTCCG (sugars kkddddddddddkeke, PS)
KARPAS-229, 4 µM
  target mRNA inhibition: 0%

## CCTTCTGCAGGGAGTC (sugars k3 d10 k3, PS)
KARPAS-229, 4 µM
  target mRNA inhibition: 0%

## TTGTCTAGTGTCATGG (sugars kkdddddddddkekek, PS)
KARPAS-229, 4 µM
  target mRNA inhibition: 24%
